From patent US20230117324A1, “OXAZINE MONOACYLGLYCEROL LIPASE (MAGL) INHIBITORS” (Hoffmann-La Roche Inc., priority 2018, published 2023)

These compounds were tested against T1, MAGL (Homo sapiens, UniProt Q99685) (assay: MAGL inhibition, 2-AG assay (hydrolysis of 2-arachidonoylglycerol, arachidonic acid by mass spectrometry)). Conditions: 2-AG assay (footnote [b]).
T1 sequence (Q99685 1-303): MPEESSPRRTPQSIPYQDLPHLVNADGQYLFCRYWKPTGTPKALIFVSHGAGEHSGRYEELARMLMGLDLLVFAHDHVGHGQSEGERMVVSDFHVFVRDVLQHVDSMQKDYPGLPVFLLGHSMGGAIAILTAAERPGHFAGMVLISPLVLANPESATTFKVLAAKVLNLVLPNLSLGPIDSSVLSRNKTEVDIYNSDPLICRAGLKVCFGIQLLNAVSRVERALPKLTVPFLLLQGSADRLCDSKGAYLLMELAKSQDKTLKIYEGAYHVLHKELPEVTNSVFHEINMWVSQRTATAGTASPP
Assay type: biochemical
Method: Alternatively, compounds were profiled for MAGL inhibitory activity by determining the enzymatic activity by following the hydrolysis of the natural substrate 2-arachidonoylglycerol (2-AG) resulting in arachidonic acid, which can be followed by mass spectrometry. This assay is hereinafter abbreviated “2-AG assay”.
The 2-AG assay was carried out in 384 well assay plates (PP, Greiner Cat #784201) in a total volume of 20 μL. Compound dilutions were made in 100% DMSO (VWR Chemicals 23500.297) in a polypropylene plate in 3-fold dilution steps to give a final concentration range in the assay from 12.5 μM to […]. 0.25 μL compound dilutions (100% DMSO) were added to 9 μL MAGL in assay buffer (50 mM TRIS (GIBCO, 15567-027), 1 mM EDTA (Fluka, 03690-100 mL), 0.01% (v/v) Tween. After shaking, the plate was incubated for 15 min at RT. To start the reaction, 10 μL 2-arachidonoylglycerol in assay buffer was added. The final concentrations in the assay was […] and 8 μM 2-arachidonoylglyerol. After shaking and 30 min incubation at RT, the reaction was quenched by the addition of 40 μL of ACN containing 4 μM of d8-arachidonic acid. The amount of arachidonic acid was traced by an online SPE system (Agilent Rapidfire) coupled to a triple quadrupole mass spectrometer (Agilent 6460). A C18 SPE cartridge (G9205A) was used in an ACN/water liquid setup. The mass spectrometer was operated in negative electrospray mode following the mass transitions 303.1→259.1 for arachidonic acid and 311.1→267.0 for d8-arachidonic acid. The activity of the compounds was calculated based on the ratio of intensities [arachidonic acid/d8-arachidonic acid].

Structure (SMILES) | IC50 [µM]
O=C1CO[C@H]2CCN(C(=O)N3CC(c4ccc(N5CCCC5C5CC5)cc4)C3)C[C@H]2N1 (stereo partly drawn) [Example 167, (4aR,8aS)-6-(3-(4-(2-Cyclopropylpyrrolidin-1-yl)phenyl)azetidine-1-carbonyl)hexahydro-2H-pyrido[4,3-b][1,4]oxazin-3(4H)-one] | 0.0002
O=C1CO[C@H]2CCN(C(=O)N3CC(c4ccc(N5CC6(C5)CC(F)(F)C6)cc4)C3)C[C@H]2N1 [Example 191, (4aR,8aS)-6-[3-[4-(6,6-Difluoro-2-azaspiro[3.3]heptan-2-yl)phenyl]azetidine-1-carbonyl]-4,4a,5,7,8,8a-hexahydropyrido[4,3-b][1,4]oxazin-3-one] | 0.0005
CC(Oc1ccc(C(F)(F)F)cc1F)C1CN(C(=O)N2CC[C@@H]3OCC(=O)N[C@@H]3C2)C1 (single isomer, unassigned) [Example 97, (4aR,8aS)-6-(3-((S or R)-1-(2-Fluoro-4-(trifluoromethyl)phenoxy)ethyl)azetidine-1-carbonyl)hexahydro-2H-pyrido[4,3-b][1,4]oxazin-3(4H)-one] | 0.016
CC1(C)COc2cc(C3CN(C(=O)N4CC[C@@H]5OCC(=O)N[C@@H]5C4)C3)ccc21 [Example 232, (4aR,8aS)-6-(3-(3,3-Dimethyl-2,3-dihydrobenzofuran-6-yl)azetidine-1-carbonyl)hexahydro-2H-pyrido[4,3-b][1,4]oxazin-3(4H)-one] | 0.007
O=C1CO[C@H]2CCN(C(=O)N3CC(c4ccc(N5CCC(C(F)(F)F)C5)cn4)C3)C[C@H]2N1 (stereo partly drawn) [Example 270, (4aR,8aS)-6-(3-(5-(3-(Trifluoromethyl)pyrrolidin-1-yl)pyridin-2-yl)azetidine-1-carbonyl)hexahydro-2H-pyrido[4,3-b][1,4]oxazin-3(4H)-one] | 0.026
Cc1ccc(C2CN(C(=O)N3CC[C@@H]4OCC(=O)N[C@@H]4C3)C2)cc1C [Example 259, (4aR,8aS)-6-[3-(3,4-Dimethylphenyl)azetidine-1-carbonyl]-4,4a,5,7,8,8a-hexahydropyrido [4,3-b][1,4]oxazin-3-one] | 0.03

Continued, values first:

IC50 [µM] | Structure (SMILES)
0.017 | COc1ccc(C(c2ccccn2)C2CCN(C(=O)N3CC[C@@H]4OCC(=O)N[C@@H]4C3)CC2)cc1OC (single isomer, unassigned) [Example 119, (4aR,8aS)-6-[4-[(S or R)-(3,4-dimethoxyphenyl)-(2-pyridyl)methyl]piperidine-1-carbonyl]-4,4a,5,7,8,8a-hexahydropyrido[4,3-b][1,4]oxazin-3-one]
0.0002 | O=C1CO[C@H]2CCN(C(=O)N3CCC(C(c4ccccc4)c4ccc(F)cc4)CC3)C[C@H]2N1 (single isomer, unassigned) [Example 68, (4aR,8aS)-6-(4-((S or R)-(4-Fluorophenyl)(phenyl)methyl)piperidine-1-carbonyl)hexahydro-2H-pyrido[4,3-b][1,4]oxazin-3(4H)-one]
0.569 | O=C1CO[C@H]2CCN(C(=O)N3CCC(c4ccnc(C5CC5)c4)CC3)C[C@H]2N1 [Example 61, (4aR,8aS)-6-(4-(2-Cyclopropylpyridin-4-yl)piperidine-1-carbonyl)hexahydro-2H-pyrido[4,3-b][1,4]oxazin-3(4H)-one]
0.016 | O=C1CO[C@H]2CCN(C(=O)N3CCC(C(c4ccc(F)cc4)c4nc(C5CC5)no4)CC3)C[C@H]2N1 (single isomer, unassigned) [Example 95, (4aR,8aS)-6-(4-((S or R)-(3-Cyclopropyl-1,2,4-oxadiazol-5-yl)(4-fluorophenyl)methyl)piperidine-1-carbonyl)hexahydro-2H-pyrido[4,3-b][1,4]oxazin-3(4H)-one]
0.0005 | N#Cc1ccccc1-c1ccc(C2CN(C(=O)N3CC[C@@H]4OCC(=O)N[C@@H]4C3)C2)cc1 [Example 127, 4′-(1-((4aR,8aS)-3-Cxooctahydro-2H-pyrido[4,3-b][1,4]oxazine-6-carbonyl)azetidin-3-yl)-[1,1′-biphenyl]-2-carbonitrile]
